US11958876B2, “Carbacyclic phosphatidic acid compound” (OTSUKA CHEMICAL CO., LTD., priority 2019, dated 2024)
Structures can show the parent of a compound that is named as a salt.

Assay: Stability test of 2ccPA crystals with added 2ccPA-L or 2ccPA-P (thermo-hygrostat, HPLC purity)
Type: physicochemical
Details: 40° C., humidity 60%
Procedure: 2ccPA-L of Example 2 or 2ccPA-P of Comparative Example 2 was added to 2ccPA, and a stability test was performed. • Control: 2ccPA crystal • Test substances: crystals obtained by adding 2ccPA-L or 2ccPA-P at each concentration to 2ccPA, followed by crystallization with methanol and acetone. (2) Execution Conditions
In the stability test, a thermo-hygrostat (Yamato Scientific Co., Ltd., IW223) was used. The stability test was performed while maintaining a set temperature of 40° C. and a set humidity of 60%.
The sample purity was confirmed in such a manner that about 10 mg of each sample was weighed every week and diluted with 2 mL of acetonitrile/water (volume ratio: 1/1), and the diluted solution was analyzed by high-performance liquid chromatography (Shimadzu LC20AD).
The results are shown in Table 1 (Example 2) and Table 2 (Comparative Example 2). Tables 1 and 2 focus only on 2ccPA, and show the residual rate thereof with the initial content of 2ccPA as 100 mass %.

SMILES: CCCCCCCC/C=C\CCCCCCCC(=O)OCC1COP(=O)(O)C1 (stereo not shown) [Example 2ccPA, sodium salt of 9-octadecenoic acid (9Z)-(2-hydroxy-2-oxo-2λ^5-1,2-oxaphosphoran-4-yl)methyl ester]
- Stability test (1 week): residual rate of 2ccPA (control 2ccPA crystal, 0 mass % additive, 1 week, initial 2ccPA content as 100 mass %): 100%
- Stability test (2 weeks): residual rate of 2ccPA (control 2ccPA crystal, 0 mass % additive, 2 weeks, initial 2ccPA content as 100 mass %): 94.4%

SMILES: CCCCC/C=C\C/C=C\CCCCCCCC(=O)OCC1COP(=O)(O)C1 (stereo not shown) [Example 2ccPA-L]
- Effect on purity of 2ccPA on storage (in words) (2ccPA-L coexisting with 2ccPA, storage 1 or 2 weeks): hardly reduced

SMILES: CCCCCCCCCCCCCCCC(=O)OCC1COP(=O)(O)C1 (stereo not shown) [Example 2ccPA-P]
- Effect on purity of 2ccPA on storage (in words) (0.15 mass % 2ccPA-P added to 2ccPA): the purity was reduced
